Laboratory results as given in patent publication US9938261B2, “Heterocyclic compounds and methods of use thereof” (AMBIT BIOSCIENCES CORPORATION, priority 2011, dated 2018).

Experiments:
FLT3 = biological target: T1, FLT3 (Homo sapiens, UniProt P36888); assay: Competition binding assay, FLT3 Kd; conditions: competition binding
T1 construct: made in house
T1 sequence (P36888 27-993): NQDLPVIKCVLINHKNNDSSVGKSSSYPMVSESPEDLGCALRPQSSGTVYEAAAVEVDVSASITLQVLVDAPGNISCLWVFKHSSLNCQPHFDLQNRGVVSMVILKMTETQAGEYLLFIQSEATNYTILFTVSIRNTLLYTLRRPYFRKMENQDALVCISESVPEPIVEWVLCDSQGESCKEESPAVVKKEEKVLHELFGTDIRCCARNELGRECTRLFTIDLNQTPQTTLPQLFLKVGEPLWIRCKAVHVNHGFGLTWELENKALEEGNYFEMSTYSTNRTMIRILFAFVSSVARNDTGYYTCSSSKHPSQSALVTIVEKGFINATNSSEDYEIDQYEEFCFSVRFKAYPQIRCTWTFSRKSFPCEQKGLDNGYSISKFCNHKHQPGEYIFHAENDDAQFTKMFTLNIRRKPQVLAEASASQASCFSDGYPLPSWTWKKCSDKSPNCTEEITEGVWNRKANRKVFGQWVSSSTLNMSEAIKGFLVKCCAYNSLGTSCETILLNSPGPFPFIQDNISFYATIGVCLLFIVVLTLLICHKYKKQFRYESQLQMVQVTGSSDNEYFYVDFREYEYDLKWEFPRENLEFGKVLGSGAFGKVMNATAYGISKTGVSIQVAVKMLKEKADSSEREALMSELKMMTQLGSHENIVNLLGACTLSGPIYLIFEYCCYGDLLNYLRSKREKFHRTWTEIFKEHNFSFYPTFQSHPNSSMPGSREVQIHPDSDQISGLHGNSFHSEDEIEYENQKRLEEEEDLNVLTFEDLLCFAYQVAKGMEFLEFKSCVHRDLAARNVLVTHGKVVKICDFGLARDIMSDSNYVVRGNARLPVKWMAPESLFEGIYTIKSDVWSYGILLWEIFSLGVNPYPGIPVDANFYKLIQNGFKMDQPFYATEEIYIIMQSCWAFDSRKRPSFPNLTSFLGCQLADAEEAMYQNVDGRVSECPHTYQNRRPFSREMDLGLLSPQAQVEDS
Outline: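 Kd values came from eleven-point threefold dilutions of compound, measured by qPCR of kinase eluted from affinity-ligand beads after 1 h equilibrium binding at room temperature. Kinase was either T7-phage fused or HEK-293-expressed with a DNA tag.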

CSF1R = CSF1R (Homo sapiens, UniProt P07333); assay: HEK293 CSF1R phosphorylation MSD assay; type: cell-based; design: expressed in transfected cells; host or cells: HEK293; conditions: HEK293 cells, M-CSF stimulated CSF1R phosphorylation, MSD; read-out: HEK293 pCSF1R M-CSF MSD:IC50
CSF1R, sequence (P07333 20-972): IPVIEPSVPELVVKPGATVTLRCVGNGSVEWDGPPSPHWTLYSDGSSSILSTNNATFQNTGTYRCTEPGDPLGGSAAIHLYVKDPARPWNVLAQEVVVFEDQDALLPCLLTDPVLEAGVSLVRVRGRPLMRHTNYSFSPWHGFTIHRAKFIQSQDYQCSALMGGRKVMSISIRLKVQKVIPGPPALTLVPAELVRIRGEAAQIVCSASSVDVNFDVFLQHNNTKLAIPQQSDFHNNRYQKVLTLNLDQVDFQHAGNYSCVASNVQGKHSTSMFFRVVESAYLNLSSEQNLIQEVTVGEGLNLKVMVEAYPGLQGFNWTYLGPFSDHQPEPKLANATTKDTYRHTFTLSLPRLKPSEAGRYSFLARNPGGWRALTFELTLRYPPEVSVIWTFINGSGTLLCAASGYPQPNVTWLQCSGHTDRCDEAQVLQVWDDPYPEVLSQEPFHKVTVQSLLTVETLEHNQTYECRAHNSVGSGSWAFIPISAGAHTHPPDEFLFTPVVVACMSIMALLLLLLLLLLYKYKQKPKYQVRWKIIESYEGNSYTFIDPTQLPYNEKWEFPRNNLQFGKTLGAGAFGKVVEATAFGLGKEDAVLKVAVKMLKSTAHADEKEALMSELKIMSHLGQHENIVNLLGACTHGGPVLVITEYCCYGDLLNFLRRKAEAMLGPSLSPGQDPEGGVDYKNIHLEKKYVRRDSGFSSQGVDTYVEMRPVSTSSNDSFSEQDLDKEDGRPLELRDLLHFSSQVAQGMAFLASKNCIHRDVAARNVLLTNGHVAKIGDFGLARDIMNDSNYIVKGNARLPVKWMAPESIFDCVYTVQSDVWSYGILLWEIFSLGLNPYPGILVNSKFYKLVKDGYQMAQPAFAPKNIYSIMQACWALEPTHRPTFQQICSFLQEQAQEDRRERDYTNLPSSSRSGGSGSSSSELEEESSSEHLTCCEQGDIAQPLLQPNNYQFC
Outline: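 Ligand-induced CSF1R autophosphorylation was measured by MSD sandwich assay: CSF1R-FKBP from lysates captured via FK506, anti-phosphotyrosine readout. Cells were exposed to compound for 2 h (9-point, half-log, 0.5% DMSO) before 5 min 50 ng/mL M-CSF. Reported IC50 is the mean of duplicate-plate IC50s relative to DMSO control.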

Structure (SMILES): N#Cc1ccc2c(c1)ncn2Cc1ccc2nc(N[C@@H]3CCCC[C@H]3O)sc2c1 [Example 108, 1-((2-(((1R,2R)-2-hydroxycyclohexyl)amino)benzo[d]thiazol-6-yl)methyl)-1H-benzo[d]imidazole-5-carbonitrile]
- Kd (FLT3): > 5000 nM
- IC50 (CSF1R): 50 to 200 nM

Structure (SMILES): CC(C)(O)c1cnc2c(c1)ncn2Cc1ccc2nc(N[C@@H]3CCCC[C@H]3O)sc2c1 [Example 109, (1R,2R)-2-((6-((6-(2-hydroxypropan-2-yl)-3H-imidazo[4,5-b]pyridin-3-yl)methyl)benzo[d]thiazol-2-yl)amino)cyclohexanol]
- Kd (FLT3): 1000 to 5000 nM
- IC50 (CSF1R): 50 to 200 nM

Structure (SMILES): CC(=O)c1ccc2c(c1)ncn2Cc1ccc2nc(N[C@@H]3CCCC[C@H]3O)sc2c1 [Example 110, 1-(1-((2-(((1R,2R)-2-hydroxycyclohexyl)amino)benzo[d]thiazol-6-yl)methyl)-1H-benzo[d]imidazol-5-yl)ethanone]
- Kd (FLT3): 1000 to 5000 nM
- IC50 (CSF1R): ≤ 50 nM

Structure (SMILES): N#Cc1ccc2ncn(Cc3ccc4nc(N[C@@H]5CCCC[C@H]5O)sc4c3)c2c1 [Example 111, 1-((2-(((1R,2R)-2-hydroxycyclohexyl)amino)benzo[d]thiazol-6-yl)methyl)-1H-benzo[d]imidazole-6-carbonitrile]
- Kd (FLT3): 1000 to 5000 nM
- IC50 (CSF1R): 50 to 200 nM

Structure (SMILES): CS(=O)(=O)c1ccc2c(c1)ncn2Cc1ccc2nc(N[C@@H]3CCCC[C@H]3O)sc2c1 [Example 112, (1R,2R)-2-((6-((5-(methylsulfonyl)-1H-benzo[d]imidazol-1-yl)methyl)benzo[d]thiazol-2-yl)amino)cyclohexanol]
- Kd (FLT3): 1000 to 5000 nM
- IC50 (CSF1R): 200 to 500 nM

Structure (SMILES): CS(=O)(=O)c1ccc2ncn(Cc3ccc4nc(N[C@@H]5CCCC[C@H]5O)sc4c3)c2c1 [Example 113, (1R,2R)-2-((6-((6-(methylsulfonyl)-1H-benzo[d]imidazol-1-yl)methyl)benzo[d]thiazol-2-yl)amino)cyclohexanol]
- Kd (FLT3): 1000 to 5000 nM
- IC50 (CSF1R): 200 to 500 nM

Structure (SMILES): O[C@@H]1CCCC[C@H]1Nc1nc2ncc(Cn3cnc4cccnc43)cc2s1 [Example 114, (1R,2R)-2-((6-((3H-imidazo[4,5-b]pyridine-3-yl)methyl)thiazolo[4,5-b]pyridine-2-yl)amino)cyclohexanol]
- Kd (FLT3): 1000 to 5000 nM
- IC50 (CSF1R): 50 to 200 nM

Structure (SMILES): CC(O)c1cnc2c(c1)ncn2Cc1ccc2nc(N[C@@H]3CCCC[C@H]3O)sc2c1 (stereo partly drawn) [Example 115, (1R,2R)-2-((6-((6-((R,S)-1-hydroxyethyl)-3H-imidazo[4,5-b]pyridin-3-yl)methyl)benzo[d]thiazol-2-yl)amino)cyclohexanol]
- Kd (FLT3): 1000 to 5000 nM
- IC50 (CSF1R): 50 to 200 nM

Structure (SMILES): N#Cc1ccn2c(Cc3ccc4nc(N[C@@H]5CCCC[C@H]5O)sc4c3)cnc2c1 [Example 117, 3-((2-(((1R,2R)-2-hydroxycyclohexyl)amino)benzo[d]thiazol-6-yl)methyl)imidazo[1,2-a]pyridine-7-carbonitrile]
- Kd (FLT3): > 5000 nM
- IC50 (CSF1R): > 500 nM

Structure (SMILES): O[C@@H]1CCCC[C@H]1Nc1nc2ccc(Cn3cnc4cncnc43)cc2o1 [Example 118, (1R,2R)-2-((6-((9H-purin-9-yl)methyl)benzo[d]oxazol-2-yl)amino)cyclohexanol]
- Kd (FLT3): 1000 to 5000 nM
- IC50 (CSF1R): > 500 nM

Structure (SMILES): Cc1cc2ncn(Cc3ccc4nc(N[C@@H]5CCCC[C@H]5O)sc4c3)c2cc1C [Example 119, (1R,2R)-2-((6-((5,6-dimethyl-1H-benzo[d]imidazol-1-yl)methyl)benzo[d]thiazol-2-yl)amino)cyclohexanol]
- Kd (FLT3): 200 to 1000 nM
- IC50 (CSF1R): 50 to 200 nM

Structure (SMILES): CC(=O)c1ccc2ncn(Cc3ccc4nc(N[C@@H]5CCCC[C@H]5O)sc4c3)c2c1 [Example 120, 1-(1-((2-(((1R,2R)-2-hydroxycyclohexyl)amino)benzo[d]thiazol-6-yl)methyl)-1H-benzo[d]imidazol-6-yl)ethanone]
- Kd (FLT3): 1000 to 5000 nM
- IC50 (CSF1R): 50 to 200 nM

Structure (SMILES): C#Cc1ccc2c(c1)ncn2Cc1ccc2nc(N[C@@H]3CCCC[C@H]3O)sc2c1 [Example 121, (1R,2R)-2-((6-((5-ethynyl-1H-benzo[d]imidazol-1-yl)methyl)benzo[d]thiazol-2-yl)amino)cyclohexanol]
- Kd (FLT3): 1000 to 5000 nM
- IC50 (CSF1R): 50 to 200 nM

Structure (SMILES): C#Cc1ccc2ncn(Cc3ccc4nc(N[C@@H]5CCCC[C@H]5O)sc4c3)c2c1 [Example 122, (1R,2R)-2-((6-((6-ethynyl-1H-benzo[d]imidazol-1-yl)methyl)benzo[d]thiazol-2-yl)amino)cyclohexanol]
- Kd (FLT3): 200 to 1000 nM
- IC50 (CSF1R): 50 to 200 nM

Structure (SMILES): COc1nc2c(cc1Br)ncn2Cc1ccc2nc(N[C@@H]3CCCC[C@H]3O)sc2c1 [Example 123, (1R,2R)-2-((6-((6-bromo-5-methoxy-3H-imidazo[4,5-b]pyridin-3-yl)methyl)benzo[d]thiazol-2-yl)amino)cyclohexanol]
- Kd (FLT3): 200 to 1000 nM
- IC50 (CSF1R): 50 to 200 nM

Structure (SMILES): N#Cc1cnc2c(c1)ncn2Cc1ccc2nc(N[C@@H]3CCCC[C@H]3O)oc2c1 [Example 124, 3-((2-(((1R,2R)-2-hydroxycyclohexyl)amino)benzo[d]oxazol-6-yl)methyl)-3H-imidazo[4,5-b]pyridine-6-carbonitrile]
- Kd (FLT3): 200 to 1000 nM
- IC50 (CSF1R): 50 to 200 nM

Structure (SMILES): O[C@@H]1CCCC[C@H]1Nc1nc2ccc(Cc3cnc4cnccn34)cc2s1 [Example 125, (1R,2R)-2-((6-(imidazo[1,2-a]pyrazin-3-ylmethyl)benzo[d]thiazol-2-yl)amino)cyclohexanol]
- Kd (FLT3): 1000 to 5000 nM
- IC50 (CSF1R): 50 to 200 nM

Structure (SMILES): COc1nc2c(cc1C#N)ncn2Cc1ccc2nc(N[C@@H]3CCCC[C@H]3O)sc2c1 [Example 126, 3-((2-(((1R,2R)-2-hydroxycyclohexyl)amino)benzo[d]thiazol-6-yl)methyl)-5-methoxy-3H-imidazo[4,5-b]pyridine-6-carbonitrile]
- Kd (FLT3): 200 to 1000 nM
- IC50 (CSF1R): ≤ 50 nM

Structure (SMILES): Cc1ccc2c(c1)ncn2Cc1ccc2nc(N[C@@H]3CCCC[C@H]3O)sc2c1 [Example 127, (1R,2R)-2-((6-((5-methyl-1H-benzo[d]imidazol-1-yl)methyl)benzo[d]thiazol-2-yl)amino)cyclohexanol]
- Kd (FLT3): 1000 to 5000 nM
- IC50 (CSF1R): 50 to 200 nM

Structure (SMILES): O[C@@H]1CCCC[C@H]1Nc1nc2ccc(Cn3cnc4cc(F)c(F)cc43)cc2s1 [Example 128, (1R,2R)-2-((6-((5,6-difluoro-1H-benzo[d]imidazol-1-yl)methyl)benzo[d]thiazol-2-yl)amino)cyclohexanol]
- Kd (FLT3): > 5000 nM
- IC50 (CSF1R): 200 to 500 nM

Structure (SMILES): O[C@@H]1CCCC[C@H]1Nc1nc2ccc(Cn3cnc4cc(F)ccc43)cc2s1 [Example 129, (1R,2R)-2-((6-((5-fluoro-1H-benzo[d]imidazol-1-yl)methyl)benzo[d]thiazol-2-yl)amino)cyclohexanol]
- Kd (FLT3): 1000 to 5000 nM
- IC50 (CSF1R): ≤ 50 nM

Structure (SMILES): O[C@@H]1CCCC[C@H]1Nc1nc2ccc(Cn3cnc4cc(C(F)(F)F)ccc43)cc2s1 [Example 130, (1R,2R)-2-((6-((5-(trifluoromethyl)-1H-benzo[d]imidazol-1-yl)methyl)benzo[d]thiazol-2-yl)amino)cyclohexanol]
- Kd (FLT3): 1000 to 5000 nM
- IC50 (CSF1R): 200 to 500 nM

Structure (SMILES): O[C@@H]1CCCC[C@H]1Nc1nc2ccc(Cc3cnc4cccnn34)cc2s1 [Example 131, (1R,2R)-2-((6-(imidazo[1,2-b]pyridazin-3-ylmethyl)benzo[d]thiazol-2-yl)amino)cyclohexanol]
- Kd (FLT3): ≤ 200 nM
- IC50 (CSF1R): ≤ 50 nM

Structure (SMILES): O[C@@H]1CCCC[C@H]1Nc1nc2ccc(Cn3cnc4cc(F)cnc43)cc2o1 [Example 132, (1R,2R)-2-((6-((6-fluoro-3H-imidazo[4,5-b]pyridin-3-yl)methyl)benzo[d]oxazol-2-yl)amino)cyclohexanol]
- Kd (FLT3): ≤ 200 nM
- IC50 (CSF1R): 50 to 200 nM

Structure (SMILES): OC[C@@H]1CCCC[C@H]1Nc1nc2ccc(Cn3cnc4cc(Br)cnc43)cc2s1 [Example 133, ((1R,2R)-2-((6-((6-bromo-3H-imidazo[4,5-b]pyridin-3-yl)methyl)benzo[d]thiazol-2-yl)amino)cyclohexyl)methanol]
- Kd (FLT3): 1000 to 5000 nM
- IC50 (CSF1R): 50 to 200 nM

Structure (SMILES): Cn1nnnc1-c1cnc2c(c1)ncn2Cc1ccc2nc(N[C@@H]3CCCC[C@H]3O)sc2c1 [Example 134, (1R,2R)-2-((6-((6-(1-methyl-1H-tetrazol-5-yl)-3H-imidazo[4,5-b]pyridin-3-yl)methyl)benzo[d]thiazol-2-yl)amino)cyclohexanol]
- Kd (FLT3): 200 to 1000 nM
- IC50 (CSF1R): ≤ 50 nM
